In patent publication US20130217681A1, “METHOD AND COMPOSITION FOR WEIGHT-GAIN MANAGEMENT” (TECHNION RESEARCH AND DEVELOPMENT FOUNDATION LTD., priority 2010, published 2013):
“And” between values parts separate entries of the source, which are not always exact repeats. Equal values may be shown once. Read-outs that look alike come from different tables or passages of the source.

Legend:
[1] = betahistine in a small group (n=7) of olanzapine-treated first-episode schizophrenia patients; assay type: in vivo, Human
Excerpt: Similarly, betahistine was associated with a modest attenuation of weight gain in a small group (n=7) of olanzapine-treated first-episode schizophrenia patients: the betahistine group 3.86 kg versus the placebo group 5.03 kg.
Similarly, betahistine was associated with a modest attenuation of weight gain in a small group (n=7) of olanzapine-treated first-episode schizophrenia patients: the betahistine group gained 3.86 kg versus the placebo group 5.03 kg.

animal models of obesity = details: cited from earlier work
[2] = olanzapine-treated first episode schizophrenia patients, cited from earlier work
[3] = cited from earlier work; for weight gain, mean (SD): olanzapine-treated patients, reboxetine 4 mg/day, 31 patients reboxetine, 29 placebo
[4] = baseline to endpoint, 6 weeks
Excerpt: Human patients (male and female, age 18-45) hospitalized at Tirat Carmel Mental Health Center (Tirat Carmel, Israel) were screened. Eligible patients were interviewed using the Structured Clinical Interview for DSM-IV-TR Axis I Disorders, Patient Edition, and those who meet DSM-IV-TR criteria for schizophrenic or schizophreniform disorder were enrolled.
A double-blind, placebo-controlled, randomized design was used in the study.

[5] = in 10 weeks; cited from earlier work

SMILES: CNCCc1ccccn1 [betahistine]
- weight gain, mean (SD) [1]: 3.86 kg
- weight gain, mean (SD) ([1]; listed as Olanzapine+betahistine): 3.86 (0.9) kg
- food intake (animal models of obesity): inhibit food intake
- tolerability [2]: safe, well tolerated
- effect on weight gain ([2]; small sample, open design): prevents weight gain

SMILES: CCOc1ccccc1OC(c1ccccc1)C1CNCCO1 (centres unmarked) [reboxetine]
- weight-attenuating effect ([3]; low-dose 4 mg/day, schizophrenic patients treated with olanzapine): significant weight-attenuating effect
- weight gain, mean (SD) [3]: 3.31 (2.73) kg and 3.31 kg
- weight gain, mean (SD) ([3]; listed as Olanzapine+reboxetine): 3.31 (2.73) kg
- tolerability ([3]; reboxetine-olanzapine treated patients): safe and well tolerated and no clinically significant side effects were found

SMILES: Cc1cc2c(s1)Nc1ccccc1N=C2N1CCN(C)CC1 [olanzapine + placebo, olanzapine]
- patients who gained at least 7% of their initial weight (clinically significant weight gain) (6 week trial, 30 vs 13 patients): 46.1%
- weight gain during the trial, average (SD) (6 week trial, olanzapine 10 mg, betahistine 48 mg/day, reboxetine 4 mg, Example 1): 5.5 (2.7) kg
- body weight (Week 1): 70.4 kg
- increase in body weight, Δ from baseline (Week 1): 1.2 kg^
- body weight (Week 2): 71.3 kg
- increase in body weight, Δ from baseline (Week 2): 2.3 kg
- body weight (Week 3): 72 kg
- increase in body weight, Δ from baseline (Week 3): 3.8 kg
- body weight (Week 4): 73.4 kg
- increase in body weight, Δ from baseline (Week 4): 4.3 kg
- body weight (Week 5): 74.2 kg
- increase in body weight, Δ from baseline (Week 5): 5.4 kg
- body weight (Week 6): 75.4 kg
- increase in body weight, Δ from baseline (Week 6): 5.5 kg
- change in triglyceride level [4]: almost two-fold increase
- weight gain, mean (SD) [3]: 4.91 (2.45) kg
- weight gain induced in treated patients [5]: 3.5 kg
